Measurements as given in the supplement of paper PMC13207355.
Structures can show the parent of a compound that is named as a salt.

How the values were obtained:
Details in all cases: exposure time: 72 h
E31 [1] = patient-derived glioblastoma stem cells of proneural subtype; assay: phenotypic distance (Euclidean, principal components) from DMSO controls (arbitrary units); higher = stronger morphological change
E28 [2] = patient-derived glioblastoma stem cells of classical subtype; assay: as above
E57 [3] = patient-derived glioblastoma stem cells of mesenchymal subtype; assay: as above
FT3469 [4] = normal neural stem cell line; assay: as above
E21 [5] = patient-derived glioblastoma stem cells of mesenchymal subtype; assay: as above
E13 [6] = patient-derived glioblastoma stem cells of classical subtype; assay: as above
E34 [7] = patient-derived glioblastoma stem cells of proneural subtype; assay: as above
E31 [8] = assay: surviving fraction (nuclei count normalised to DMSO); higher = more cells surviving (less toxic)
E28 [9] = assay: as above
E57 [10] = assay: as above
FT3469 [11] = assay: as above
E21 [12] = assay: as above
E13 [13] = assay: as above
E34 [14] = assay: as above
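Wherever phenotypic distance (Euclidean, principal components) from DMSO controls is given: cell Painting imaging in 384-well plates, CellProfiler features reduced to at least 20 principal components, Euclidean distance versus same-plate DMSO vehicle wells (0.1% v/v), median over six images per well.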
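Wherever surviving fraction (nuclei count normalised to DMSO) is given: nuclei counted by high-content imaging of Hoechst-stained cells in laminin-coated 384-well plates, relative to 0.1% DMSO vehicle wells, with staurosporine as cell-death control.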

NC1CCN(c2nc3c(cc2F)c(=O)c(C(=O)O)cn3-c2ccc(F)cc2F)C1 (stereo unspecified) [Tosufloxacin hydrochloride]
Details | phenotypic distance | surviving fraction
E13 [6], 4.1 nM | 0.747 | –
E13 [6], 12.3 nM | 0.689 | –
E13 [6], 37 nM | 0.471 | –
E13 [6], 111.1 nM | 0.593 | –
E13 [6], 333.3 nM | 0.883 | –
E13 [6], 1000 nM | 0.502 | –
E13 [6], 3000 nM | 0.704 | –
E13 [13], 4.1 nM | – | 0.947
E13 [13], 12.3 nM | – | 1.13
E13 [13], 37 nM | – | 0.977
E13 [13], 111.1 nM | – | 1.05
E13 [13], 333.3 nM | – | 1.01
E13 [13], 1000 nM | – | 1
E13 [13], 3000 nM | – | 1.04
E21 [5], 4.1 nM | 0.748 | –
E21 [5], 12.3 nM | 0.836 | –
E21 [5], 37 nM | 0.56 | –
E21 [5], 111.1 nM | 0.309 | –
E21 [5], 333.3 nM | 0.495 | –
E21 [5], 1000 nM | 0.751 | –
E21 [5], 3000 nM | 0.725 | –
E21 [12], 4.1 nM | – | 0.969
E21 [12], 12.3 nM | – | 1.06
E21 [12], 37 nM | – | 1.02
E21 [12], 111.1 nM | – | 0.964
E21 [12], 333.3 nM | – | 0.988
E21 [12], 1000 nM | – | 0.989
E21 [12], 3000 nM | – | 0.906
E28 [2], 4.1 nM | 3.44 | –
E28 [2], 12.3 nM | 0.615 | –
E28 [2], 37 nM | 0.624 | –
E28 [2], 111.1 nM | 0.684 | –
E28 [2], 333.3 nM | 0.493 | –
E28 [2], 1000 nM | 0.455 | –
E28 [2], 3000 nM | 0.886 | –
E28 [9], 4.1 nM | – | 0.969
E28 [9], 12.3 nM | – | 1.18
E28 [9], 37 nM | – | 0.9
E28 [9], 111.1 nM | – | 1.12
E28 [9], 333.3 nM | – | 0.975
E28 [9], 1000 nM | – | 1.01
E28 [9], 3000 nM | – | 0.898
E31 [1], 4.1 nM | 0.809 | –
E31 [1], 12.3 nM | 0.633 | –
E31 [1], 37 nM | 0.706 | –
E31 [1], 111.1 nM | 0.608 | –
E31 [1], 333.3 nM | 0.538 | –
E31 [1], 1000 nM | 0.815 | –
E31 [1], 3000 nM | 0.521 | –
E31 [8], 4.1 nM | – | 0.78
E31 [8], 12.3 nM | – | 0.861
E31 [8], 37 nM | – | 0.987
E31 [8], 111.1 nM | – | 0.892
E31 [8], 333.3 nM | – | 1.06
E31 [8], 1000 nM | – | 0.836
E31 [8], 3000 nM | – | 0.849
E34 [7], 4.1 nM | 0.608 | –
E34 [7], 12.3 nM | 0.861 | –
E34 [7], 37 nM | 0.802 | –
E34 [7], 111.1 nM | 0.784 | –
E34 [7], 333.3 nM | 0.625 | –
E34 [7], 1000 nM | 0.557 | –
E34 [7], 3000 nM | 0.971 | –
E34 [14], 4.1 nM | – | 0.948
E34 [14], 12.3 nM | – | 0.869
E34 [14], 37 nM | – | 0.977
E34 [14], 111.1 nM | – | 0.985
E34 [14], 333.3 nM | – | 0.916
E34 [14], 1000 nM | – | 1.03
E34 [14], 3000 nM | – | 0.856
E57 [3], 4.1 nM | 0.751 | –
E57 [3], 12.3 nM | 0.527 | –
E57 [3], 37 nM | 0.691 | –
E57 [3], 111.1 nM | 0.438 | –
E57 [3], 333.3 nM | 0.382 | –
E57 [3], 1000 nM | 0.743 | –
E57 [3], 3000 nM | 0.801 | –
E57 [10], 4.1 nM | – | 1.03
E57 [10], 12.3 nM | – | 1.03
E57 [10], 37 nM | – | 1
E57 [10], 111.1 nM | – | 1.06
E57 [10], 333.3 nM | – | 0.946
E57 [10], 1000 nM | – | 1.09
E57 [10], 3000 nM | – | 0.903
FT3469 [4], 4.1 nM | 0.676 | –
FT3469 [4], 12.3 nM | 0.401 | –
FT3469 [4], 37 nM | 0.584 | –
FT3469 [4], 111.1 nM | 0.591 | –
FT3469 [4], 333.3 nM | 3.26 | –
FT3469 [4], 1000 nM | 0.468 | –
FT3469 [4], 3000 nM | 0.933 | –
FT3469 [11], 4.1 nM | – | 0.927
FT3469 [11], 12.3 nM | – | 0.952
FT3469 [11], 37 nM | – | 1.13
FT3469 [11], 111.1 nM | – | 0.908
FT3469 [11], 333.3 nM | – | 0.964
FT3469 [11], 1000 nM | – | 0.96
FT3469 [11], 3000 nM | – | 0.913

CC[C@]1(O)C[C@@H]2CN(CCc3c([nH]c4ccccc34)[C@@](C(=O)OC)(c3cc4c(cc3OC)N(C)[C@H]3[C@@](O)(C(=O)OC)[C@H](OC(C)=O)[C@]5(CC)C=CCN6CC[C@]43[C@@H]65)C2)C1 [Vinblastine sulfate]
Details | phenotypic distance | surviving fraction
E13 [6], 4.1 nM | 7.96 | –
E13 [6], 12.3 nM | 7.11 | –
E13 [6], 37 nM | 8.76 | –
E13 [6], 111.1 nM | 7.57 | –
E13 [6], 333.3 nM | 9.22 | –
E13 [6], 1000 nM | 8.93 | –
E13 [6], 3000 nM | 9.73 | –
E13 [13], 4.1 nM | – | 0.22
E13 [13], 12.3 nM | – | 0.177
E13 [13], 37 nM | – | 0.175
E13 [13], 111.1 nM | – | 0.159
E13 [13], 333.3 nM | – | 0.171
E13 [13], 1000 nM | – | 0.162
E13 [13], 3000 nM | – | 0.194
E21 [5], 4.1 nM | 9.17 | –
E21 [5], 12.3 nM | 9.98 | –
E21 [5], 37 nM | 11.1 | –
E21 [5], 111.1 nM | 9.54 | –
E21 [5], 333.3 nM | 8.35 | –
E21 [5], 1000 nM | 8.21 | –
E21 [5], 3000 nM | 11 | –
E21 [12], 4.1 nM | – | 0.0927
E21 [12], 12.3 nM | – | 0.0948
E21 [12], 37 nM | – | 0.0937
E21 [12], 111.1 nM | – | 0.08
E21 [12], 333.3 nM | – | 0.0642
E21 [12], 1000 nM | – | 0.0421
E21 [12], 3000 nM | – | 0.0326
E28 [2], 4.1 nM | 3.12 | –
E28 [2], 12.3 nM | 3.85 | –
E28 [2], 37 nM | 4.99 | –
E28 [2], 111.1 nM | 4.47 | –
E28 [2], 333.3 nM | 5.63 | –
E28 [2], 1000 nM | 6.15 | –
E28 [2], 3000 nM | 6.57 | –
E28 [9], 4.1 nM | – | 0.39
E28 [9], 12.3 nM | – | 0.297
E28 [9], 37 nM | – | 0.291
E28 [9], 111.1 nM | – | 0.236
E28 [9], 333.3 nM | – | 0.269
E28 [9], 1000 nM | – | 0.218
E28 [9], 3000 nM | – | 0.204
E31 [1], 4.1 nM | 6.42 | –
E31 [1], 12.3 nM | 12.9 | –
E31 [1], 37 nM | 11.4 | –
E31 [1], 111.1 nM | 10.7 | –
E31 [1], 333.3 nM | 14.5 | –
E31 [1], 1000 nM | 10.1 | –
E31 [1], 3000 nM | 9.92 | –
E31 [8], 4.1 nM | – | 0.0459
E31 [8], 12.3 nM | – | 0.0237
E31 [8], 37 nM | – | 0.0459
E31 [8], 111.1 nM | – | 0.0325
E31 [8], 333.3 nM | – | 0.0444
E31 [8], 1000 nM | – | 0.0237
E31 [8], 3000 nM | – | 0.0163
E34 [7], 4.1 nM | 7.02 | –
E34 [7], 12.3 nM | 7.36 | –
E34 [7], 37 nM | 6.67 | –
E34 [7], 111.1 nM | 7.53 | –
E34 [7], 333.3 nM | 8.9 | –
E34 [7], 1000 nM | 8.95 | –
E34 [7], 3000 nM | 8.01 | –
E34 [14], 4.1 nM | – | 0.338
E34 [14], 12.3 nM | – | 0.282
E34 [14], 37 nM | – | 0.405
E34 [14], 111.1 nM | – | 0.322
E34 [14], 333.3 nM | – | 0.375
E34 [14], 1000 nM | – | 0.226
E34 [14], 3000 nM | – | 0.281
E57 [3], 4.1 nM | 5.33 | –
E57 [3], 12.3 nM | 5.47 | –
E57 [3], 37 nM | 6.45 | –
E57 [3], 111.1 nM | 5.46 | –
E57 [3], 333.3 nM | 5.55 | –
E57 [3], 1000 nM | 5.53 | –
E57 [3], 3000 nM | 6.15 | –
E57 [10], 4.1 nM | – | 0.0751
E57 [10], 12.3 nM | – | 0.0815
E57 [10], 37 nM | – | 0.0676
E57 [10], 111.1 nM | – | 0.0629
E57 [10], 333.3 nM | – | 0.057
E57 [10], 1000 nM | – | 0.0602
E57 [10], 3000 nM | – | 0.057
FT3469 [4], 4.1 nM | 3.93 | –
FT3469 [4], 12.3 nM | 4.58 | –
FT3469 [4], 37 nM | 4.48 | –
FT3469 [4], 111.1 nM | 5.12 | –
FT3469 [4], 333.3 nM | 6.19 | –
FT3469 [4], 1000 nM | 5.04 | –
FT3469 [4], 3000 nM | 5.6 | –
FT3469 [11], 4.1 nM | – | 0.427
FT3469 [11], 12.3 nM | – | 0.416
FT3469 [11], 37 nM | – | 0.414
FT3469 [11], 111.1 nM | – | 0.334
FT3469 [11], 333.3 nM | – | 0.372
FT3469 [11], 1000 nM | – | 0.388
FT3469 [11], 3000 nM | – | 0.353
